Among the data in US12258327B2, “5-membered heteroaryl-containing aminopyridine compounds as EGFR inhibitors” (YUHAN CORPORATION, priority 2021, dated 2025) are IC50 values, retold here.

For test [1], the target named is EGFR del19/C797S (Homo sapiens, UniProt P00533, C797S/DEL746-750). In words: Biochemical EGFR kinase assay (Lance Ultra TR-FRET), double mutant del19/C797S. The essentials: (§1)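 Step 1: compound in kinase buffer, 0.003–10 μM. Step 2: kinase reaction 1 h at room temperature. Step 4: TR-FRET read at 615/665 nm; IC50 calculated.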
Test [2] deals with EGFR wildtype (WT) (Homo sapiens, UniProt P00533). Kind of test: Biochemical EGFR kinase assay (Lance Ultra TR-FRET), wildtype. The essentials:
as §1

For test [3], the target named is EGFR L858R/T790M/C797S (Homo sapiens, UniProt P00533, C797S/L858R/T790M). In words: Biochemical EGFR kinase assay (Lance Ultra TR-FRET), triple mutant L858R/T790M/C797S. An outline of the steps: as §1
Test [4] concerns the target EGFR del19/T790M/C797S (Homo sapiens, UniProt P00533, C797S/DEL746-750/T790M). Kind of test: Biochemical EGFR kinase assay (Lance Ultra TR-FRET), triple mutant del19/T790M/C797S. The essentials:
as §1

The target of test [5] is EGFR L858R/C797S (Homo sapiens, UniProt P00533, C797S/L858R). In words: Biochemical EGFR kinase assay (Lance Ultra TR-FRET), double mutant L858R/C797S. An outline of the steps:
as §1

Where [6] appears, read: Km ATP, read-out: IC50 del19/C797S (nM) Km ATP.
[7] abbreviates: Km ATP, read-out: IC50 WT (nM) Km ATP.
Setting [8] is: Km ATP, read-out: IC50 L858R/T790M/C797S (nM) Km ATP.
Setting [9] is: Km ATP, read-out: IC50 del19/T790M/C797S (nM) Km ATP.
Where [10] appears, read: Km ATP, read-out: IC50 L858R/C797S (nM) Km ATP.
[11] abbreviates: IC50 del19/C797S (nM) 100 μM ATP, 100 μM ATP.
[12] abbreviates: IC50 WT (nM) 100 μM ATP, 100 μM ATP.
The mark [13] stands for this setting: IC50 L858R/T790M/C797S (nM) 100 μM ATP, 100 μM ATP.
Where [14] appears, read: IC50 del19/T790M/C797S (nM) 100 μM ATP, 100 μM ATP.
[15] abbreviates: IC50 L858R/C797S (nM) 100 μM ATP, 100 μM ATP.
Setting [16] is: Km ATP, read-out: IC50 del19/C797S, Km ATP.
Setting [17] is: Km ATP, read-out: IC50 WT, Km ATP.
[18] abbreviates: Km ATP, read-out: IC50 L858R/T790M/C797S, Km ATP.
Where [19] appears, read: Km ATP, read-out: IC50 del19/T790M/C797S, Km ATP.
Where [20] appears, read: Km ATP, read-out: IC50 L858R/C797S, Km ATP.

Where two headings read alike, the source gives them in different places.

EGFR del19/T790M/C797S, sequence (P00533 with tags, fused parts or gaps DEL746-750/T790M/C797S): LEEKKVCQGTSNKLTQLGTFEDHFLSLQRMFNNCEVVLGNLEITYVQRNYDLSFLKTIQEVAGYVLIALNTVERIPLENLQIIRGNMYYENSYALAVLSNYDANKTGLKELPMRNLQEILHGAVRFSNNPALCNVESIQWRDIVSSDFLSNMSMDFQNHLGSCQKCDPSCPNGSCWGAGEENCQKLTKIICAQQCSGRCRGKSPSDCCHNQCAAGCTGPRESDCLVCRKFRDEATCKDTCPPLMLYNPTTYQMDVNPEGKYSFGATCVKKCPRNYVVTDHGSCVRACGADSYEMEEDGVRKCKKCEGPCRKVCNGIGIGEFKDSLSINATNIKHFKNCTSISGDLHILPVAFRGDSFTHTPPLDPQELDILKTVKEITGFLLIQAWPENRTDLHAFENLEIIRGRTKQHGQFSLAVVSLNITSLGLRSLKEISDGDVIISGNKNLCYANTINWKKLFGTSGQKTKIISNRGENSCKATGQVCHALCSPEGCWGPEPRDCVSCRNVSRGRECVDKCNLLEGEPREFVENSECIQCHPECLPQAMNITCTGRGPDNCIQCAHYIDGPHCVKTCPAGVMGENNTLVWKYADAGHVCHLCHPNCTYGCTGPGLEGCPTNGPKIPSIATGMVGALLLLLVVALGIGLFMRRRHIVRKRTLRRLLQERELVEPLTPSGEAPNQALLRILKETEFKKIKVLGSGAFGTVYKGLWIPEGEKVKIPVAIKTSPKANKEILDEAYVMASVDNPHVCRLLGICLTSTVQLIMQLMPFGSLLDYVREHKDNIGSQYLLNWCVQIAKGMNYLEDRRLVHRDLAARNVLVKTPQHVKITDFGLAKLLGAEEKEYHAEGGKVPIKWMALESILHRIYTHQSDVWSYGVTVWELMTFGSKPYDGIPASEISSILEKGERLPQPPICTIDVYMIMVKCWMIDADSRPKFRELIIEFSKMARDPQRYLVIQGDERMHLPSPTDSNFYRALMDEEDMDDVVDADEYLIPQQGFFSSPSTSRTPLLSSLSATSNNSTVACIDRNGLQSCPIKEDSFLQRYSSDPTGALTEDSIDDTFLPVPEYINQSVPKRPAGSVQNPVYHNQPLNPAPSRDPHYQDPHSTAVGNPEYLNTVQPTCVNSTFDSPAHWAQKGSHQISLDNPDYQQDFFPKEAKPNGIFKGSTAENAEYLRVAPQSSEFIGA
EGFR del19/C797S, sequence (P00533 with tags, fused parts or gaps DEL746-750/C797S): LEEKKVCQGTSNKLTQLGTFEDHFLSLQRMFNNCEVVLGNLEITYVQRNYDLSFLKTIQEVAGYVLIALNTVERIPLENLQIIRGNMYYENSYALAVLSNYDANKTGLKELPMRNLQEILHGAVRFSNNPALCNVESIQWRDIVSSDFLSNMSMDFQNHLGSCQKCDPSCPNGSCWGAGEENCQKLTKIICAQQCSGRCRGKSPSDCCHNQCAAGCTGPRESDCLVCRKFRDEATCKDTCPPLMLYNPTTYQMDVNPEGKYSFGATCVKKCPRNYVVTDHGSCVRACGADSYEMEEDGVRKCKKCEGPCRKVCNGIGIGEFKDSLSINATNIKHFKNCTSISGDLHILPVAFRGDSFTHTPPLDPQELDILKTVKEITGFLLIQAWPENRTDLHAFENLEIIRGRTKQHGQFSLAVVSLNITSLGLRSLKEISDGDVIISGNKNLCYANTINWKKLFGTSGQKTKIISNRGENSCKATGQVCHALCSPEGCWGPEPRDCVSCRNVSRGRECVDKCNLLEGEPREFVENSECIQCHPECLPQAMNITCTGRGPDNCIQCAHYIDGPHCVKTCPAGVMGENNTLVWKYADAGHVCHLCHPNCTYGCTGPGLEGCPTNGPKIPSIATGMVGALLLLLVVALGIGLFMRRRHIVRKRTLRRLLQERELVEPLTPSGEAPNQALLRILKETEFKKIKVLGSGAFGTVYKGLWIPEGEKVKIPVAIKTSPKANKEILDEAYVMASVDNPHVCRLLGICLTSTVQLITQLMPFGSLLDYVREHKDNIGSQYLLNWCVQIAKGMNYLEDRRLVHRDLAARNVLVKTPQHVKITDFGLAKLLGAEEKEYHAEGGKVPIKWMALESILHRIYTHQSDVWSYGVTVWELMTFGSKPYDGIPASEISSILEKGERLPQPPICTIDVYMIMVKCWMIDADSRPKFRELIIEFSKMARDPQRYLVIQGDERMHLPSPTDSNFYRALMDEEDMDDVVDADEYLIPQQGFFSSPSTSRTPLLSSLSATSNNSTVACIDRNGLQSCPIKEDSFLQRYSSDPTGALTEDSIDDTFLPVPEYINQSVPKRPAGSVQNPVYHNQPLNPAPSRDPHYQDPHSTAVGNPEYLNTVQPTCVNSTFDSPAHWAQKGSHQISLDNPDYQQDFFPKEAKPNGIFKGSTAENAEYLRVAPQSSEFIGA
EGFR L858R/C797S, sequence (P00533 25-1210 C797S/L858R): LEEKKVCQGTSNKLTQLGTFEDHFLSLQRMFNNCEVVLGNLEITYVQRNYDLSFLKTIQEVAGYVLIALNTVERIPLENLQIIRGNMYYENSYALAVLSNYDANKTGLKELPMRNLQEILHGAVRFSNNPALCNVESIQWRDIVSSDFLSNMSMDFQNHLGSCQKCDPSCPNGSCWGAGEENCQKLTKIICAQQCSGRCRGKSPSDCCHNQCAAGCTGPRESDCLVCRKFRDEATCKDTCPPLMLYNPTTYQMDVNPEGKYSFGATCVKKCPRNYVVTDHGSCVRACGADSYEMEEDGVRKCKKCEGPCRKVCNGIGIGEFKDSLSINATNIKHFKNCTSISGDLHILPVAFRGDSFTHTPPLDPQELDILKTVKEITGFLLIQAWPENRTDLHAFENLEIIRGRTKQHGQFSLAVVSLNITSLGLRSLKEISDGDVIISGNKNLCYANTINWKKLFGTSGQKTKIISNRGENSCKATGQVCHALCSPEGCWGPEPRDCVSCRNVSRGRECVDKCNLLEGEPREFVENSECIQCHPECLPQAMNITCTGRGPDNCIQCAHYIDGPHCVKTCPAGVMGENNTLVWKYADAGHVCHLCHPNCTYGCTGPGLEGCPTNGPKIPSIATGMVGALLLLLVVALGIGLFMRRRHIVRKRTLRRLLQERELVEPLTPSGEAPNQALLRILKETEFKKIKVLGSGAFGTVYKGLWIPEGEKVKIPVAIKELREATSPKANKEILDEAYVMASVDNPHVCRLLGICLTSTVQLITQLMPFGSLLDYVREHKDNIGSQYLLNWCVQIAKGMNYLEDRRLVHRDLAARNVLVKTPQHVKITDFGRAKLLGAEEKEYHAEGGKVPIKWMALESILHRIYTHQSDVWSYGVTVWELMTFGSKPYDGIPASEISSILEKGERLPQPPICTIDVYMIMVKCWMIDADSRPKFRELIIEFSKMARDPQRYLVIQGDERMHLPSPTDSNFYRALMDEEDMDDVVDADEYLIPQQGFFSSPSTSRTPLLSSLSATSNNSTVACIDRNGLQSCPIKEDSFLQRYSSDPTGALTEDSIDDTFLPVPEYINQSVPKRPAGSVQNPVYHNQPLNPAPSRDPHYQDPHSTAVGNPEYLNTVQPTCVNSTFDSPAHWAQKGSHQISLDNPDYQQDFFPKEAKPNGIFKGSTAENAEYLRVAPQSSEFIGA
EGFR L858R/T790M/C797S, sequence (P00533 25-1210 T790M/C797S/L858R): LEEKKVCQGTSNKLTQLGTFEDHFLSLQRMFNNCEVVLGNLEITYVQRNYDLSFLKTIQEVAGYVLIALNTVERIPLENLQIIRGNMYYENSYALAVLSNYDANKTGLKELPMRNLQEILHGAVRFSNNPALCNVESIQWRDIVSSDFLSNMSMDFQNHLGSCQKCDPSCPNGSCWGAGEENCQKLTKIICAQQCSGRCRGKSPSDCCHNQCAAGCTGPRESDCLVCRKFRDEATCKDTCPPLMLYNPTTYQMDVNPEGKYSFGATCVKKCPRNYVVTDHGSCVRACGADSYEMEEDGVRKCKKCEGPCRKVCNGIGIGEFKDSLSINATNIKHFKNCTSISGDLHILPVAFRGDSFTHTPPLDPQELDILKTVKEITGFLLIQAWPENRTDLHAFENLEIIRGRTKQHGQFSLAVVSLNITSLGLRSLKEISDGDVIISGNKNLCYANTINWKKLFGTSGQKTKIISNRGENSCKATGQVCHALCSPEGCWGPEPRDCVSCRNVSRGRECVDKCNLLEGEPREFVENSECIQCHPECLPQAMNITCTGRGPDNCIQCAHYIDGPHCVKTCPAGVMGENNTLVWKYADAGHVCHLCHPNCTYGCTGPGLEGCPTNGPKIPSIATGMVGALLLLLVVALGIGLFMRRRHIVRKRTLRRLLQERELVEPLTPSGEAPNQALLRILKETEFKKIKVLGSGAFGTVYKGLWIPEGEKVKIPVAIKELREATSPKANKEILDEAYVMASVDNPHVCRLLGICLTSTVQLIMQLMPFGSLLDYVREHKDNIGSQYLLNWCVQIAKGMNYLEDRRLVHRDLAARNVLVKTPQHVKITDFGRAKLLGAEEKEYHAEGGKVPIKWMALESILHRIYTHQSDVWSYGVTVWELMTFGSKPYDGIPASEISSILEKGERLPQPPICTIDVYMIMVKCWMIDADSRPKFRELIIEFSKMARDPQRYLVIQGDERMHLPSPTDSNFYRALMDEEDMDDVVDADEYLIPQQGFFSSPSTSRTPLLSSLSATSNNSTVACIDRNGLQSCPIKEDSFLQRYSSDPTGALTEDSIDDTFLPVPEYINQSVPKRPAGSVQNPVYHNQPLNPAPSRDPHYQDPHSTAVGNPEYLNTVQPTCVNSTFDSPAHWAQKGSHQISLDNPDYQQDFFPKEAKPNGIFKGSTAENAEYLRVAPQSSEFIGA

On to `CN(C)C[C@H]1C[C@H](CNc2cc(Nc3ccnc(-c4cnn(S(=O)(=O)C5CC5)c4)n3)ncc2-c2ccn(C(F)F)n2)C1` [Example 209, N^2-(2-(1-(Cyclopropylsulfonyl)-1H-pyrazol-4-yl)pyrimidin-4-yl)-5-(1-(difluoromethyl)-1H-pyrazol-3-yl)-N^4-(((1r,3r)-3-((dimethylamino)methyl)cyclobutyl)methyl)pyridine-2,4-diamine], for which the IC50 in test [1] (setting [6]) came out at 6.4 nM; in test [2] (setting [7]), 13.1 nM; in test [3] (setting [8]), 0.1 nM; in test [4] (setting [9]) it was 0.3 nM; in test [5] (setting [10]), 4.8 nM.

As to `CCS(=O)(=O)n1ccc(-c2nccc(Nc3cc(N[C@H]4CC[C@@](C)(O)CC4)c(-c4ccn(C(F)F)n4)cn3)n2)n1` [Example 309, (1s,4s)-4-((5-(1-(Difluoromethyl)-1H-pyrazol-3-yl)-2-((2-(1-(ethylsulfonyl)-1H-pyrazol-3-yl)pyrimidin-4-yl)amino)pyridin-4-yl)amino)-1-methylcyclohexan-1-ol], the IC50 was 343 nM in test [1] (setting [11]); 460 nM in test [1] (setting [6]); greater than 10000 nM in test [2] (setting [12]); 5.5 nM in test [2] (setting [7]); 29.9 nM in test [3] (setting [13]); 4.9 nM in test [3] (setting [8]). Also, the IC50 in test [4] (setting [14]) is 3.8 nM; in test [4] (setting [9]), 4.4 nM; in test [5] (setting [15]), greater than 10000 nM; in test [5] (setting [10]) it was 42.9 nM.

With `C[C@]1(O)CC[C@@H](Nc2cc(Nc3ccnc(-c4cnn(CC(F)F)c4)n3)ncc2-c2ccn(CC(F)F)n2)CC1` [Example 343, (1s,4s)-4-((5-(1-(2,2-Difluoroethyl)-1H-pyrazol-3-yl)-2-((2-(1-(2,2-difluoroethyl)-1H-pyrazol-4-yl)pyrimidin-4-yl)amino)pyridin-4-yl)amino)-1-methylcyclohexan-1-ol], the IC50 in test [1] (setting [16]) stood at 4.7 nM; in test [2] (setting [17]), 35.3 nM; in test [3] (setting [18]) it was 0.2 nM; in test [4] (setting [19]), 0.1 nM; in test [5] (setting [20]), 0.3 nM.

In the case of `O=S(=O)(C1CC1)n1cc(-c2nccc(Nc3cc(N[C@H]4CC[C@H](CO)OC4)c(-c4ccn(C(F)F)n4)cn3)n2)cn1` [Example 196, ((2R,5S)-5-((2-((2-(1-(Cyclopropylsulfonyl)-1H-pyrazol-4-yl)pyrimidin-4-yl)amino)-5-(1-(difluoromethyl)-1H-pyrazol-3-yl)pyridin-4-yl)amino)tetrahydro-2H-pyran-2-yl)methanol], the IC50 was 131 nM in test [1] (setting [11]); greater than 10000 nM in test [2] (setting [12]); 13.3 nM in test [3] (setting [13]); 3.7 nM in test [4] (setting [14]); 9100 nM in test [5] (setting [15]).

Turning to `CN[C@H]1CC[C@@H](Nc2cc(Nc3ccnc(-c4cnn(S(=O)(=O)C5CC5)c4)n3)ncc2-c2csc(C(C)(C)O)n2)CC1` [Example 56, 2-(4-(6-((2-(1-(Cyclopropylsulfonyl)-1H-pyrazol-4-yl)pyrimidin-4-yl)amino)-4-(((1s,4s)-4-(methylamino)cyclohexyl)amino)pyridin-3-yl)thiazol-2-yl)propan-2-ol], the IC50 in test [1] (setting [11]) was 13.2 nM; in test [2] (setting [12]) it was greater than 10000 nM; in test [3] (setting [13]), 0.8 nM; in test [4] (setting [14]), 0.6 nM; in test [5] (setting [15]), 7.1 nM.

`CC1(O)CCC(Nc2cc(Nc3ccnc(-c4cnn(C5CCCO5)c4)n3)ncc2-c2ccn(C(F)F)n2)CC1` (stereo not shown) [Example 318, (1s,4s)-4-((5-(1-(Difluoromethyl)-1H-pyrazol-3-yl)-2-((2-(1-(tetrahydrofuran-2-yl)-1H-pyrazol-4-yl)pyrimidin-4-yl)amino)pyridin-4-yl)amino)-1-methylcyclohexan-1-ol]: the IC50 in test [1] (setting [11]) is 290 nM; in test [1] (setting [6]), 57.1 nM; in test [2] (setting [12]) it was greater than 10000 nM; in test [2] (setting [7]) it was 255 nM; in test [3] (setting [13]), 4.8 nM; in test [3] (setting [8]), 0.5 nM. Further, the IC50 amounted to 3 nM in test [4] (setting [14]), 3.6 nM in test [4] (setting [9]), 277 nM in test [5] (setting [15]) and 42.7 nM in test [5] (setting [10]).

As for `Cn1nc(-c2cnc(Nc3ccnc(-c4cnn(S(=O)(=O)C5CC5)c4)n3)cc2N[C@H]2CC[C@H](CCO)CC2)cc1C(F)(F)F` [Example 263, 2-((1r,4r)-4-((2-((2-(1-(Cyclopropylsulfonyl)-1H-pyrazol-4-yl)pyrimidin-4-yl)amino)-5-(1-methyl-5-(trifluoromethyl)-1H-pyrazol-3-yl)pyridin-4-yl)amino)cyclohexyl)ethan-1-ol], the IC50 was 237 nM in test [1] (setting [11]); 15.5 nM in test [1] (setting [6]); greater than 10000 nM in test [2] (setting [12]); 54.5 nM in test [2] (setting [7]); 11.5 nM in test [3] (setting [13]); 2.6 nM in test [3] (setting [8]). The IC50 is 9.9 nM in test [4] (setting [14]), 0.3 nM in test [4] (setting [9]), 32.5 nM in test [5] (setting [15]) and 6.3 nM in test [5] (setting [10]).

As to `CS(=O)(=O)c1ccccc1Nc1nccc(Nc2cc(N[C@H]3CC[C@@](C)(O)CC3)c(-c3ccn(C(F)F)n3)cn2)n1` [Example 313, (1s,4s)-4-((5-(1-(Difluoromethyl)-1H-pyrazol-3-yl)-2-((2-((2-(methylsulfonyl)phenyl)amino)pyrimidin-4-yl)amino)pyridin-4-yl)amino)-1-methylcyclohexan-1-ol], the IC50 in test [1] (setting [11]) was 74.5 nM; in test [1] (setting [6]) it was 39.9 nM; in test [2] (setting [12]) it was greater than 10000 nM; in test [2] (setting [7]), 1610 nM; in test [3] (setting [13]), 12.6 nM; in test [4] (setting [14]) it was 2.1 nM. Moreover, the IC50 in test [5] (setting [15]) is 627 nM; in test [5] (setting [10]) it was 146 nM.

With `O=S(=O)(C1CC1)n1cc(-c2nccc(Nc3cc(NCC4(CO)COC4)c(-c4ccn(C(F)F)n4)cn3)n2)cn1` [Example 197, (3-(((2-((2-(1-(Cyclopropylsulfonyl)-1H-pyrazol-4-yl)pyrimidin-4-yl)amino)-5-(1-(difluoromethyl)-1H-pyrazol-3-yl)pyridin-4-yl)amino)methyl)oxetan-3-yl)methanol], the IC50 in test [1] (setting [11]) is 2.2 nM; in test [1] (setting [6]), 1.1 nM; in test [2] (setting [12]), greater than 10000 nM; in test [2] (setting [7]) it was 7.9 nM; in test [3] (setting [13]) it was 0.3 nM; in test [3] (setting [8]), 0.1 nM. Moreover, the IC50 turned out to be 0.2 nM in test [4] (setting [14]), 0.1 nM in test [4] (setting [9]), 70 nM in test [5] (setting [15]) and 2.1 nM in test [5] (setting [10]).

With `Cn1ccc(-c2cnc(Nc3ccnc(-c4cnn(S(=O)(=O)C5CC5)c4)n3)cc2NC2CCC(F)(CO)CC2)n1` (stereo not shown) [Example 222, (4-((2-((2-(1-(Cyclopropylsulfonyl)-1H-pyrazol-4-yl)pyrimidin-4-yl)amino)-5-(1-methyl-1H-pyrazol-3-yl)pyridin-4-yl)amino)-1-fluorocyclohexyl)methanol], the IC50 in test [1] (setting [11]) was 0.9 nM; in test [1] (setting [6]) it was 1.1 nM; in test [2] (setting [12]), greater than 10000 nM; in test [2] (setting [7]), 14.9 nM; in test [3] (setting [13]), 0.2 nM; in test [3] (setting [8]), 0.1 nM. Further, the IC50 came to 0.2 nM in test [4] (setting [14]), 0.3 nM in test [4] (setting [9]), 18.8 nM in test [5] (setting [15]) and 3.3 nM in test [5] (setting [10]).

With `O=S(=O)(C1CC1)n1cc(-c2nccc(Nc3cc(NC4CCN(CC(F)F)CC4)c(-c4ccn(C(F)F)n4)cn3)n2)cn1` [Example 219, N^2-(2-(1-(Cyclopropylsulfonyl)-1H-pyrazol-4-yl)pyrimidin-4-yl)-N^4-(1-(2,2-difluoroethyl)piperidin-4-yl)-5-(1-(difluoromethyl)-1H-pyrazol-3-yl)pyridine-2,4-diamine], the IC50 in test [1] (setting [6]) turned out to be 134 nM; in test [2] (setting [7]) it was 8630 nM; in test [3] (setting [8]) it was 0.5 nM; in test [4] (setting [9]), 0.8 nM; in test [5] (setting [10]), 21.4 nM.

As to `OCC[C@H]1CC[C@@H](Nc2cc(Nc3ccnc(-c4cnn(CC(F)F)c4)n3)ncc2-c2ccn(CC(F)(F)F)n2)CC1` [Example 338, 2-((1s,4s)-4-((2-((2-(1-(2,2-Difluoroethyl)-1H-pyrazol-4-yl)pyrimidin-4-yl)amino)-5-(1-(2,2,2-trifluoroethyl)-1H-pyrazol-3-yl)pyridin-4-yl)amino)cyclohexyl)ethan-1-ol], the IC50 in test [1] (setting [16]) was found to be 13.2 nM; in test [2] (setting [17]), 45.1 nM; in test [3] (setting [18]), 0.4 nM; in test [4] (setting [19]), 0.7 nM; in test [5] (setting [20]), 3.9 nM.
